≈ marks a conversion by molar mass, not a printed value.
Tests used:
Assay type in all cases: physicochemical
[1] = aqueous solubility of the free base, pH-dependent; conditions: aqueous medium
log D at pH 7.4 = experiment: log D at pH 7.4
BCS classification = conditions: because of pH dependent solubility in physiological range

- solubility ([1]; aqueous buffer, alkaline conditions, pH 7): 0.3 µg/mL (≈ 0.000921 mM)
- solubility ([1]; simulated gastric fluid, acidic conditions, pH 1): 3200 µg/mL (≈ 9.82 mM)
- logD (log D at pH 7.4): > 3
- BCS classification (BCS classification): BCS class 2
SMILES: Cc1nc(C#Cc2ccnc(Cl)c2)c(C)n1-c1ccc(F)cc1 [2-Chloro-4-[1-(4-fluoro-phenyl)-2,5-dimethyl-1H-imidazol-4-ylethynyl]-pyridine]

Reference: patent publication US20120040008A1, “PHARMACEUTICAL COMPOSITIONS OF METABOTROPIC GLUTAMATE 5 RECEPTOR (MGLU5) ANTAGONISTS” (priority 2010, published 2012)
